Test results taken from patent US11667678B2, “Peptides for the treatment of COVID-19” (priority 2019, dated 2023).

How the values were obtained:
Format in all cases: cell-based
[1] = system: human A549 lung cells challenged with Delta variant SARS-CoV-2 spike S1
[2] = system: human A549 lung cell line stimulated with Omicron variant SARS-CoV-2 spike S1
[3] = system: human A549 lung cells challenged with UK variant (Alpha or N501Y) SARS-CoV-2 spike S1
[4] = system: human A549 lung cells challenged with South Africa variant (E484K) SARS-CoV-2 spike S1

| Compound | IL-6 promoter-driven luciferase activity (reporter activity) [1] | Omicron variant spike S1-induced expression of TNFα and IL-1β (mRNA and promoter-luciferase activity) [2] | IL-6 promoter-driven luciferase activity (reporter activity) [3] | IL-6 promoter-driven luciferase activity (reporter activity) [4] |
| --- | --- | --- | --- | --- |
| O=C(O)c1ccc(O)cc1 [4HB, 4-hydroxybenzoate] | significant inhibition | Significant inhibition | significant inhibition | significant inhibition |
| EDLFYQ (SPIDAR peptide) [wtSPIDAR] | significant inhibition | Significant inhibition | significant inhibition | significant inhibition |
| CC(C)=CCO [prenol] | significant inhibition | Significant inhibition | significant inhibition | significant inhibition |
